According to patent US8258128B2, “Organic compounds” (Novartis AG, priority 2006, dated 2012):
“And” between values parts separate entries of the source, which are not always exact repeats. Equal values may be shown once. “Also recorded” adds a separate entry of the source. Marks after values point to notes of the source that are not given here.

What was measured:
[1] = system: collagen-induced arthritis in the rats; test: Collagen-induced arthritis in the rats, hind paw swelling; format: in vivo, rat
From the text: Animal models of RA need to reflect at least some of the features found in human RA (Billingham et al., 1979). Collagen-induced arthritis (CIA) has been proposed to meet these requirements (Durie et al., 1994). Especially the similarity in the joint pathophysiology makes this animal model most attractive for the evaluation of anti-rheumatic drugs (Takeshita et al., 1997). Synovial hyperplasia, which is an integral part of the disease, parallels the migration of leukocytes into the joint space; erosion and destruction of the cartilage surface can also be found (Holmdahl et al., 1985). The rat CIA, originally described by Trentham et al. (1977), was established and extensive studies with CsA were done, including three-dimensional magnetic resonance imaging (MRI) and histology (Beckmann et al., 1995; 1998). Differences in the susceptibility of several rat strains for the development of the disease have been reported (Cremer et al., 1995; Kamada et al., 1997; Knoerzer et al., 1997).
Method: For this study, COMPOUND A and COX-inhibitor Diclofenac are dissolved in a solvent containing 5% of glucose (5 ml/kg). Compounds are given orally once a day. Female rats of the WAGxBUF/F1 crossbred strain (weight 130 g) are used. The animals are divided into several groups, one placebo group (N=8), and four treatment groups (each N=7-8). Treatment starts on peak of disease (day 0) and continues for 11 days. Swelling is assessed at regular time intervals by measuring the external thickness of the hind paws in the region of the metatarsals using a micro-caliper. Tissue samples for histological evaluation are obtained at the end of the in vivo experiment, 5 h after the last oral dose of COMPOUND A or placebo on day 11.
Results shown are means±SEM of groups of each 4-8 animals of paw diameters in mm on day-12 (before the immunization with Type II collagen in incomplete Freund's adjuvant), day 0 (start of treatment) and day 11 (end of treatment).
The data shown represent the ability of the treatment (COMPOUND A at 4 different increasing doses) to reduce the volume of the hind paw measured at day 2, day 7 and day 11.

[2] = system: developing Adjuvant-induced arthritis in rats; test: Developing adjuvant-induced arthritis in rats (prophylactic dosing schedule); format: in vivo, rat; conditions: for % inhibition: day 0 to day 14; for Swelling (mm) ± SEM: day 0 to day 14, readout day 14
From the text: Adjuvant arthritis can be treated using two different dosing schedules; either starting at the time of immunization with adjuvant (prophylactic dosing) or from day 15 when the arthritic response is already established (therapeutic dosing). It is more difficult to inhibit adjuvant arthritis with the therapeutic dosing schedule as compared to the prophylactic schedule. Both versions of adjuvant arthritis are, however, extremely sensitive to the effects of both non-selective COX inhibitors and COX 2 selective inhibitors where 70-90% inhibition of swelling can be achieved at appropriate doses. These models may be predictive for some of the processes thought to be relevant in rheumatoid arthritis.
Method: Female Wistar rats weighing 150-170 g (housed in standard conditions, 5 animals per cage, with food and water ad libitum) are injected i.d. at the base of the tail with 0.1 ml of mineral oil containing 0.6 mg of lyophilized heat-killed Mycobacterium tuberculosis. The rats are treated orally with COMPOUND A or placebo formulation from day 15 to day 22 (therapeutic dosing schedule) or with COMPOUND A from day 0 to day 14 after immunization (prophylactic dosing schedule). At the end of the experiment, the swelling of the tarsal joints is measured by means of a micro-caliper. For the comparison study to Diclofenac both compounds are given from day 15 to day 29 with readouts at day 22 and 29. Percentage inhibition of paw swelling is calculated by reference to placebo treated arthritic animals (0% inhibition) and placebo treated normal animals (100% inhibition). Five animals are used per group. Data are analyzed using Kruskal-Wallis non-parametric ANOVA followed by Dunn's Multiple Comparison test.

Structure (SMILES): COC1=Nc2cc(Cl)ccc2/C(=C/C(=O)O)c2sc(Cl)cc21 [COMPOUND A, [2,7-Dichloro-10-methoxy-3-thia-9-aza-benzo[f]azulen-(4Z)-ylidene]-acetic acid]
- hind paw diameter, mean ± SEM ([1]; 0.3 mg/kg group, Day 0 (start of treatment)): 5.406 ± 0.448 mm
- hind paw diameter, mean ± SEM ([1]; 0.3 mg/kg group, Day −12 (before immunization)): 3.069 ± 0.016 mm
- median inhibition of swelling, analysis of the AUC during day 0 to 11 ([1]; 0.3 mg/kg per day p.o.): 29±9.2%
- Effect on hind paw swelling ([1]; 0.3 mg/kg per day p.o., Day 0-11 (AUC)): −29 ± 9.2%
- Effect on hind paw swelling ([1]; 0.3 mg/kg per day p.o., Day 2): −33% **
- Effect on hind paw swelling ([1]; 0.3 mg/kg per day p.o., Day 7): −31% *
- Effect on hind paw swelling ([1]; 0.3 mg/kg per day p.o., Day 11): −20%
- hind paw diameter, mean ± SEM ([1]; 0.3 mg/kg per day p.o., Day 11 (end of treatment)): 4.417 ± 0.079 mm
- hind paw diameter, mean ± SEM ([1]; 1 mg/kg group, Day 0 (start of treatment)): 5.350 ± 0.344 mm
- hind paw diameter, mean ± SEM ([1]; 1 mg/kg group, Day −12 (before immunization)): 3.107 ± 0.046 mm
- median inhibition of swelling, analysis of the AUC during day 0 to 11 ([1]; 1 mg/kg per day p.o.): 37±6.8%
- Effect on hind paw swelling ([1]; 1 mg/kg per day p.o., Day 0-11 (AUC)): −37 ± 6.8%
- Effect on hind paw swelling ([1]; 1 mg/kg per day p.o., Day 2): −40% **
- Effect on hind paw swelling ([1]; 1 mg/kg per day p.o., Day 7): −38% **
- Effect on hind paw swelling ([1]; 1 mg/kg per day p.o., Day 11): −47% ***
- hind paw diameter, mean ± SEM ([1]; 1 mg/kg per day p.o., Day 11 (end of treatment)): 3.983 ± 0.064 mm
- hind paw diameter, mean ± SEM ([1]; 3 mg/kg group, Day 0 (start of treatment)): 5.379 ± 0.224 mm
- hind paw diameter, mean ± SEM ([1]; 3 mg/kg group, Day −12 (before immunization)): 3.136 ± 0.026 mm
- median inhibition of swelling, analysis of the AUC during day 0 to 11 ([1]; 3 mg/kg per day p.o.): 51±7.1%
- Effect on hind paw swelling ([1]; 3 mg/kg per day p.o., Day 0-11 (AUC)): −51 ± 7.1%
- Effect on hind paw swelling ([1]; 3 mg/kg per day p.o., Day 2): −59% ***
- Effect on hind paw swelling ([1]; 3 mg/kg per day p.o., Day 7): −47% ***
- Effect on hind paw swelling ([1]; 3 mg/kg per day p.o., Day 11): −71% ***
- hind paw diameter, mean ± SEM ([1]; 3 mg/kg per day p.o., Day 11 (end of treatment)): 3.592 ± 0.085 mm
- hind paw diameter, mean ± SEM ([1]; 9 mg/kg group, Day 0 (start of treatment)): 5.364 ± 0.231 mm
- hind paw diameter, mean ± SEM ([1]; 9 mg/kg group, Day −12 (before immunization)): 3.043 ± 0.028 mm
- median inhibition of swelling, analysis of the AUC during day 0 to 11 ([1]; 9 mg/kg per day p.o.): 67±5.4%
- Effect on hind paw swelling ([1]; 9 mg/kg per day p.o., Day 0-11 (AUC)): −67 ± 5.4%
- Effect on hind paw swelling ([1]; 9 mg/kg per day p.o., Day 2): −69% ***
- Effect on hind paw swelling ([1]; 9 mg/kg per day p.o., Day 7): −75% ***
- Effect on hind paw swelling ([1]; 9 mg/kg per day p.o., Day 11): −90% ***
- hind paw diameter, mean ± SEM ([1]; 9 mg/kg per day p.o., Day 11 (end of treatment)): 3.275 ± 0.038 mm
- detrimental effect on body weight gain ([1]; 0.3 to 9 mg/kg per day p.o., 11 days): not observed; also recorded: does not interfere with body weight gain
- % inhibition ([2]; 0.3 mg/kg p.o.): 14.3 * %
- Swelling (mm) ± SEM ([2]; 0.3 mg/kg p.o.): 10.9 ± 0.6 mm
- % inhibition ([2]; 1 mg/kg p.o.): 57.1 * %
- Swelling (mm) ± SEM ([2]; 1 mg/kg p.o.): 9.1 ± 0.5 mm
- % inhibition ([2]; 3 mg/kg p.o.): 88% and 88.1 ** %
- Swelling (mm) ± SEM ([2]; 3 mg/kg p.o.): 7.8 ± 0.2 mm
- ED50 ([2]; Rattus norvegicus, po, prophylactic dosing schedule, read-out: calculated ED50): 0.8 mg/kg
